For one data set, the system named is U2OS cells. The data set can be described thus: Cell cycle synchronization of U2OS cells, flow cytometry. The data set is classed as cell-based, human. The note with it: 75 ng/ml, 22 h, data not shown. On the procedure:
Cell synchronization and cell cycle progression analyses. U2OS cells in 6-well dishes were subjected to nocodazole treatment (75 ng/ml) for 22 h. Thereafter, the nocodazole-arrested cultures were released by washing with 1×PBS and grown in DMEM plus 10% FBS containing either vehicle (0.5% DMSO) or 20 μM decoy peptides. Cells were harvested at 4-h intervals for standard Western blot analyses. For the analysis of Geminin protein profile, mock- or cyclin E/Cdk2-transfected U2OS cells were exposed to nocodazole (75 ng/ml) at 3 h post-transfection for 22 h.
For orientation: Flow cytometry measures light scatter and fluorescence of single cells or particles in a stream.

For the next data set, the system named is FLAG-TRIP-Br1. The data set can be described thus: Western blot with TB1-27#2 and peptide competition. The note with it: lysates of transfected U2OS cells. It is filed as binding, human. On the procedure:
For Western blot analysis, U2OS cells transfected with the pcDNA3 vector, pcDNA3 vector with TRIP-Br1 insert or TRIP-Br2 insert were harvested. The lysates were separated in a 10% acrylamide gel and blotted onto a transfer membrane. The blot was cut and probed with a mouse monoclonal anti-FLAG antibody or TB1-27#2. For 2 sections, TB1-27 and Cyr61 peptides were added in addition to TB1-27#2 as a source of competition.
(In general: In western blotting, separated proteins are transferred to a membrane and probed.)

The subject of a further data set is FLAG-TRIP-Br1 protein. The data set can be described thus: Immunoprecipitation assay with TB1-27#2 and peptide competition. The data set is classed as binding, human. Particulars: lysates of transfected U2OS cells. As to the method:
In an immunoprecipitation assay, fifty microliters of Protein A-agarose (Amersham) were incubated with 2 ml of TB1-27#2 spent media overnight. Each aliquot of agarose was washed and added to the lysates of variously transfected U2OS cells. The TB1-27 and Cyr61 peptides were separately added into 2 of the reactions while one of the reactions was probed with mouse monoclonal anti-His antibodies instead of […]. The agarose was harvested and washed the next day, and the bound proteins analyzed by SDS-PAGE. The gel was blotted and detected with anti-FLAG antibodies. The results are shown in FIG. 23 (the left panel contains 1/10th of the input of the pre-cleared U2OS cell lysate while the right panel contains the proteins eluted from the Protein A-agarose). […] Anti-DP-1 was used as a positive control for immunoprecipitation since it is known that TRIP-Br1 interacts directly with DP-1.

Data set [1] relates to caspase-3 protease activity. The data set can be described thus: Caspase assay with Ac-DEVD-AFC in U2OS cells. The data set is classed as cell-based, human. Particulars: 24 h. On the procedure:
Caspase assay. Both adherent and detached cells in 6-well dishes were harvested by centrifugation at 2000 rpm for 15 min at 4° C. The resulting cell pellets were incubated in 50 μl of chilled lysis buffer (Clontech) on ice for 10 min. Cell lysates were incubated in a reaction mix containing 10 mM HEPES, 2.0 mM EDTA, 10 mM KCl, 1.5 mM MgCl2, 1.0 mM PMSF, aprotinine, pepstatin A and leupeptine (20 μM each), 6.0 mM DTT and Ac-DEVD-AFC (4.0 μg/ml). Reactions were allowed to proceed at room temperature. Fluorescence readings were taken at 15 min intervals for 1 h using a spectrofluorometer (excitation wavelength: 400 nm; emission wavelength: 505 nm).
(§1) FIG. 6: Caspase assay. (A) Caspase 3 protease activity in U2OS cells exposed to either Eto (Etoposide) for 24 h or 50 μM decoy peptides for 48 or 72 h, were assayed using the Ac-DEVD-AFC fluorogenic substrate. […] Values represent the average +/− standard deviation of two independent experiments. Control: cells cultured in normal growth medium; Vehicle: cells cultured in the presence of 0.5% DMSO; (B) Western blot analysis of PARP cleavage. U2OS cells were exposed to either Eto (Etoposide) for 24 h or 50 μM decoy peptides for 72 h. Lane 1: Vehicle cells (cultured in the presence of 0.5% DMSO for 24 h); Lane 2: 25 μM Eto; Lane 3: 250 μM Eto; Lane 4: Vehicle (cells cultured in the presence of 0.5% DMSO for 72 h); Lane 5: *SCR; Lane 6: *Br1; Lane 7: *Br2.

For a further data set, the system named is PARP cleavage. The data set can be described thus: Western blot analysis of PARP cleavage in U2OS cells. The data set is classed as cell-based, human. The note with it: 25 and 250 μM, 24 h. On the procedure: Denaturing SDS-PAGE and western blotting. Proteins from whole cell lysate and IP complexes were separated using standard denaturing polyacrylamide gel electrophoresis as described previously (Hsu, S. I. H., et al. EMBO J 20, 2273-2285 (2001)).
as §1

For another data set, the system named is WI-38 fibroblasts. The data set can be described thus: Trypan blue exclusion manual cell count of serum-stimulated WI-38 cells. Particulars: WI-38, 0.1 μM, 72 h post-stimulation. The data set is classed as cell-based, human. On the procedure:
(§2) DNA enzyme transfection. WI-38 cells were rendered quiescent by cultivation in serum-free medium for 72 h before being transfected with DNA enzyme (0.1 μM) using Superfect as reported previously (Santiago, F. S., et al. Nat Med 5, 1264-1269 (1999)) in accordance to manufacturer's recommendations (Qiagen).
Cell proliferation assays. For the BrdU incorporation assays, growth-quiescent WI-38 cells in 96-well dishes were transfected with DNA enzyme and/or 100 ng of pCMV/E2F1, pCMV/DP1, pRSV/Cyclin E, or pCMV/Cdk2 and then exposed to Bromodeoxyuridine (BrdU, 100 μM) in the presence or absence of 10% FBS for 20 h. Bromodeoxyuridine (BrdU) incorporation was monitored with a calorimetric ELISA assay using a cell proliferation kit according to manufacturer's recommendations (Boehringer Mannheim). For manual cell count, growth-quiescent WI-38 cells in 24-well dishes were transfected with DNA enzyme and then exposed to 10% FBS for 72 h. The cells were rinsed with PBS, pH 7.4, and trypsinized, and 10 μl of cell suspension was taken from each sample and mixed with equal volume of trypan blue stain (Sigma, 0.4% w/v in 1×PBS). The number of unstained cells was enumerated manually using a hemocytometer. For colony formation assays, growth-quiescent WI-38 cells in 12-well dishes were transfected with DNA enzyme and then exposed to 10% FBS for 120 h. […]

Data set [2] deals with WI-38 cells. The data set can be described thus: BrdU incorporation, serum-induced S phase entry of WI-38 cells. The data set is classed as cell-based, human. The note with it: WI-38, 0.1 μM, 20 h; compared to unstimulated cells. As to the method: as §2
(§3) Cell proliferation assays. For the BrdU incorporation assays, growth-quiescent WI-38 cells in 96-well dishes were transfected with DNA enzyme and/or 100 ng of pCMV/E2F1, pCMV/DP1, pRSV/Cyclin E, or pCMV/Cdk2 and then exposed to Bromodeoxyuridine (BrdU, 100 μM) in the presence or absence of 10% FBS for 20 h. Bromodeoxyuridine (BrdU) incorporation was monitored with a calorimetric ELISA assay using a cell proliferation kit according to manufacturer's recommendations (Boehringer Mannheim). For manual cell count, growth-quiescent WI-38 cells in 24-well dishes were transfected with DNA enzyme and then exposed to 10% FBS for 72 h. The cells were rinsed with PBS, pH 7.4, and trypsinized, and 10 μl of cell suspension was taken from each sample and mixed with equal volume of trypan blue stain (Sigma, 0.4% w/v in 1×PBS). The number of unstained cells was enumerated manually using a hemocytometer. For colony formation assays, growth-quiescent WI-38 cells in 12-well dishes were transfected with DNA enzyme and then exposed to 10% FBS for 120 h. Cells were stained in situ with crystal violet (0.75% w/v hexamethyl-p-rosaniline chloride [SIGMA], 50% ethanol, 1.75% w/v paraformaldehyde, 0.25% w/v NaCl) for 10 min, and then rinsed thoroughly with deionized water to remove excess stains.
FIG. 13: (A) E-Br1 or E-Br2 suppresses serum-inducible S phase entry. Sub-confluent WI-38 cells were serum-starved for 72 h. Following DNA enzyme transfection, the cultures were re-stimulated with serum and allowed to proliferate in BrdU labeling medium. After 20 h, cells were assayed for BrdU incorporation with a colorimetric ELISA assay. Values represent the average of at least two independent experiments. […] Sub-confluent WI-38 cells were serum-starved for 72 h. […]
A general note: Dividing cells build labelled thymidine or BrdU into new DNA.

The test system of another data set is hTRIP-Br1 mRNA. The data set can be described thus: Semi-quantitative RT-PCR of intact hTRIP-Br1 transcripts in WI-38 cells. It is filed as cell-based, human. The note with it: WI-38, 0.1 μM, 16 h post-stimulation with 10% FBS. On the procedure: as §2
(§4) Semi-quantitative RT-PCR. Following various treatments, WI-38 cells in 6-well culture dish were subjected to total RNA extraction using the TRIZOL® Reagent (Life Technologies). Total RNA (4 μg) was reversed transcribed using oligo-dT and M-MLV reverse transcriptase in a total reaction volume of 20 μl. Polymerase Chain Reactions (PCR) were carried out on 3 μl cDNA sample in the presence of […] deoxyribonucleotide triphosphates (dNTPs) and 40 μM of specific primer pairs in a total reaction volume of 50 μl. […] Post-PCR samples were analyzed by agarose gel electrophoresis.
(§5) FIG. 11: (A) hTRIP-Br1 and hTRIP-Br2 expression is serum-inducible. […] At 24 h post-serum re-stimulation, semi-quantitative RT-PCR analysis was performed on total RNA to assess hTRIP-Br1 and hTRIP-Br2 expression. β-actin was included as an internal control. […] Semi-quantitative RT-PCR analysis was performed on total RNA to assess hTRIP-Br1 and hTRIP-Br2 expression. β-actin was included as an internal control. […]

The subject of a further data set is hTRIP-Br2 mRNA. The data set can be described thus: Semi-quantitative RT-PCR of intact hTRIP-Br2 transcripts in WI-38 cells. It is filed as cell-based, human. The note with it: WI-38, 0.1 μM, 16 h post-stimulation with 10% FBS. On the procedure: as §2, §4, §5
Data set [3] has as its system WI-38 cells. The data set can be described thus: Colony formation assay of WI-38 cells (crystal violet). It is filed as cell-based, human. Particulars: WI-38, serum-induced, 72 h. As to the method: as §2
as §3, with “For colony formation assays, growth-quiescent WI-38 cells in 12-well dishes were transfected with DNA enzyme and then exposed to 10% FBS for 120 h.” left out
FIG. 12: (A) E-Br1 or E-Br2 inhibits cell proliferation. Sub-confluent WI-38 cells were serum-starved for 72 h. Following DNA enzyme transfection, the cultures were re-stimulated with serum and allowed to proliferate. After 72 h, cells were harvested for viable cell count analysis. 10 μl of cell suspension from each sample was mixed with equal volume of 0.4% trypan blue stain. The number of unstained cells was enumerated manually using a hemocytometer. Data represent the average of at least two independent experiments. […] (B) E-Br1 or E-Br2 suppresses colony formation. Sub-confluent WI-38 cells were serum-starved for 72 h. […]

[invdT] = inverted (3'-3') thymidine

`COC(=O)Nc1nc2ccc(C(=O)c3cccs3)cc2[nH]1` [nocodazole]: in the data set with U2OS cells, the “cells arrested at the G2/M boundary with 4N DNA content” value is on record as “more than 90%”.

On to “DPGHTAAVAQAPPAVAS (Immunogenic peptide from human TRIP-Br1; listed as Homo sapiens) [TB1-27]”, for which the “blocking of TB1-27#2 binding in Western blot” value with FLAG-TRIP-Br1 is recorded as “able to block the binding”. The “effect of competing peptide on TB1-27#2 binding to FLAG-TRIP-Br1 in immunoprecipitation” value in the data set on FLAG-TRIP-Br1 protein was “abolished the binding”.

For the compound `COc1cc([C@@H]2c3cc4c(cc3[C@@H](O[C@@H]3O[C@@H]5CO[C@@H](C)O[C@H]5[C@H](O)[C@H]3O)[C@H]3COC(=O)[C@H]23)OCO4)cc(OC)c1O` [Etoposide, etoposide, reference compound], the caspase-3 activity entry in [1] is given as “dose-dependent stimulation of caspase-3 activity several orders of magnitude above baseline”. Moreover, in the data set with PARP cleavage, the PARP cleavage result is “resulted in PARP cleavage in a dose-dependent manner”.

For the compound “5′-C AGCTACTGTGGCTAGCTACAACGACCTGTCAT-3′ (DNA CAGCTACTGTGGCTAGCTACAACGACCTGTCAT; DNA, 3' [invdT], backbone not given here) [E-SCR, reference compound]”, in the data set on WI-38 fibroblasts, the “effects on WI-38 growth as compared to vehicle-treated cells” value is listed as “no significant effects”. Besides, the “BrdU incorporation on serum stimulation” value in the data set with WI-38 cells [2] was “approximately twice as much BrdU”. Moreover, the “serum-inducible steady-state hTRIP-Br1 mRNA level” value with hTRIP-Br1 mRNA is “no effect”. Moreover, the “serum-inducible steady-state hTRIP-Br2 mRNA level” value with hTRIP-Br2 mRNA is “no effect”. Besides, the colony forming potential result in the data set with WI-38 cells [3] is “colony forming potential similar to the normal and the vehicle-treated controls”.

For the origin of these results see patent publication US7223733B2, “Modulation of TRIP-Br function and method of treating proliferative disorders” (National University of Singapore, priority 2004, dated 2007).
